This is an account of results in patent US8420777B2, “Compounds that inhibit Hsp90 protein-protein interactions with IAP proteins” (University of Massachusetts, priority 2004, dated 2013).

This assay has as its system HL-60 and THP-1 AML cell lines. In words: MTT cell viability, short versus full length peptide. In kind it is cell-based. To be noted: 4×10^5 cells. The method, then: FIGS. 29B-29D are graphs depicting killing of AML cells by Survivin peptides. FIG. 29B depicts survivin peptide activity in HL-60 cells, measured by Trypan blue exclusion. FIGS. 29C and 29D depict killing, as measured using MTT, of HL-60 (FIG. 29C) or THP-1 (FIG. 29D) cells by full length Survivin peptide (SEQ ID NO:19), Survivin peptide K79-G83 (SEQ ID NO:20), or scrambled peptide (SEQ ID NO:25 and SEQ ID NO:28).
The activity of a shorter Survivin peptide was also tested in an AML cell line. A shorter cell permeable Survivin peptide was synthesized by fusing the third α-helix of the Antennapedia carrier sequence to the amino-terminus of the Survivin peptide sequence K79-G83 (SEQ ID NO:20). […] The scrambled control peptide ([…]; SEQ ID NO:28) was ineffective (FIGS. 29C, D). For these experiments a higher number of cells was used (4×10^5) to produce a 50% killing efficiency by full length survivin peptide.

With “RQIKIWFQNRRMKWKKKHSSGCAFL (Synthetically generated peptide) [P31]”, the killing efficiency is 50%.
